Reference: patent USRE39282E1, “Nucleic acid derivatives” (SmithKline Beecham Corporation, priority 1989, dated 2006)
Read-outs that look alike come from different tables or passages of the source.

Test system: HIV-1 isolates
Assay: plaque-reduction assay with HT4-6C cell monolayers, HIV isolates from untreated and treated individuals
Format: cell-based
Protocol: The isolation of HIV-1 was achieved according to methodology reported by Larder et al. PBL samples were prepared by separation on “Ficoll-hypaque” gradients and co-cultivated directly with MT-2 cells (approximately 10^6 of each) after pre-stimulation for 24 to 72 hours with phytohaemag-glutinin (3 μg/ml). In many cases PBLs were cultured after long-term frozen storage. Cultures were maintained in RPMI 1640 supplemented with 10% fetal bovine serum, antibiotics, 2% interleukin-2, and polybrene (2 μg/ml) and expanded by addition of fresh MT-2 cells when a cytopathic effect was observed (between 4 and 14 days). HIV replication was confirmed by the detection of p24 antigen in culture supernatants (p24 antigen detection kit, Abbott, Chicago, Ill.). Virus were prepared from infected cultures and stored in aliquots at −70° C. […] (Larder, B. A., Darby, G., Richman, D., Science, 243, 1731, (1989)).

Cc1cn([C@H]2C[C@H](N=[N+]=[N-])[C@@H](CO)O2)c(=O)[nH]c1=O [zidovudine, 3′-Azido-3′-deoxythymidine]
IC50 (Human immunodeficiency virus 1, read-out: ZIDOVUDINE SENSITIVITY (ID50 μM), HIV isolate A012D, 26 months of therapy, RT 67 Asn, 70 Arg, 215 Phe, 219 Gln): 2 µM
IC50 (Human immunodeficiency virus 1, read-out: ZIDOVUDINE SENSITIVITY (ID50 μM), HIV isolate A018C, 14 months of therapy, RT 67 Asn, 70 Arg, 215 Tyr, 219 Gln): 2.3 µM
IC50 (Human immunodeficiency virus 1, read-out: ZIDOVUDINE SENSITIVITY (ID50 μM), HIV isolate A036C, 11 months of therapy, RT 67 Asp, 70 Lys, 215 Tyr, 219 Lys): 0.6 µM
IC50 (Human immunodeficiency virus 1, read-out: ZIDOVUDINE SENSITIVITY (ID50 μM), HIV isolate A036D, 20 months of therapy, RT 67 Asn, 70 Arg, 215 Tyr, 219 Lys): 5.6 µM
IC50 (Human immunodeficiency virus 1, read-out: ZIDOVUDINE SENSITIVITY (ID50 μM), HIV isolate P022C, 16 months of therapy, RT 67 Asn, 70 Arg, 215 Phe, 219 Gln): 1.4 µM
IC50 (Human immunodeficiency virus 1, read-out: ZIDOVUDINE SENSITIVITY (ID50 μM), HIV isolate P035A, 6 months of therapy, RT 67 Asp, 70 Lys, 215 Tyr, 219 Lys): 0.56 µM
IC50 (Human immunodeficiency virus 1, read-out: ZIDOVUDINE SENSITIVITY (Mean ID50, μM), HIV isolate A012D, Table 2): 2.56 µM
IC50 (Human immunodeficiency virus 1, read-out: Zidovudine Sensitivity (ID50 μM), HIV isolate A001A, 0 months of therapy, RT sequence wild type, Table 3): 0.03 µM
IC50 (Human immunodeficiency virus 1, read-out: Zidovudine Sensitivity (ID50 μM), HIV isolate A001B, 12 months of therapy, RT sequence R70 and N67 R70 Q219, Table 3): 0.11 µM
IC50 (Human immunodeficiency virus 1, read-out: Zidovudine Sensitivity (ID50 μM), HIV isolate A012D, 26 months of therapy, RT N67 R70 F215 Q219, Table 3): 2 µM
IC50 (Human immunodeficiency virus 1, read-out: Zidovudine Sensitivity (ID50 μM), HIV isolate A018C, 14 months of therapy, RT N67 R70 Y215 Q219, Table 3): 4 µM
IC50 (Human immunodeficiency virus 1, read-out: Zidovudine Sensitivity (ID50 μM), HIV isolate A025A, 24 months of therapy, RT R70, Table 3): 0.11 µM
IC50 (Human immunodeficiency virus 1, read-out: Zidovudine Sensitivity (ID50 μM), HIV isolate A036C, 11 months of therapy, RT Y215, Table 3): 0.67 µM
IC50 (Human immunodeficiency virus 1, read-out: Zidovudine Sensitivity (ID50 μM), HIV isolate A036D, 20 months of therapy, RT N67 R70 Y215, Table 3): 5.6 µM
